Like-named read-outs stand apart in the source and are kept apart here. *1 amine or outer side, *2 acyl side, *3 side chain or, on linkers, in order; H or OH if unused. Where a SMILES comes first, the peptide text is derived from it. Bridges are numbered along the chain shown (N, C = ends). Roman numbers before positions name the chains, in order. [ ]: non-standard residue; d: D form. Actinocin(9to1) = Cc1c2oc3c(C)ccc(C(=O)[*:1])c3nc-2c(C(=O)[*:2])c(N)c1=O; NMeV = CN[C@H](C(=O)O)C(C)C; Sar = CNCC(=O)O
Tests used:
HIV-2 ROD = HIV-2 ROD WT in H9 cell assay; type: cell-based; conditions: Human immunodeficiency virus 2, H9; Table 18; highest concentration assayed 1.25 μM; read-out: EC50 Values
Procedure: The susceptibility of HIV type 2 ROD in H9 cells to Compound I and Compound III was determined against zidovudine (AZT) as a control.

[1] = target: T1, human DNA polymerase gamma (Homo sapiens, UniProt P54098); test: Human cellular DNA polymerase gamma assay; type: biochemical
T1 sequence (P54098 1-1239): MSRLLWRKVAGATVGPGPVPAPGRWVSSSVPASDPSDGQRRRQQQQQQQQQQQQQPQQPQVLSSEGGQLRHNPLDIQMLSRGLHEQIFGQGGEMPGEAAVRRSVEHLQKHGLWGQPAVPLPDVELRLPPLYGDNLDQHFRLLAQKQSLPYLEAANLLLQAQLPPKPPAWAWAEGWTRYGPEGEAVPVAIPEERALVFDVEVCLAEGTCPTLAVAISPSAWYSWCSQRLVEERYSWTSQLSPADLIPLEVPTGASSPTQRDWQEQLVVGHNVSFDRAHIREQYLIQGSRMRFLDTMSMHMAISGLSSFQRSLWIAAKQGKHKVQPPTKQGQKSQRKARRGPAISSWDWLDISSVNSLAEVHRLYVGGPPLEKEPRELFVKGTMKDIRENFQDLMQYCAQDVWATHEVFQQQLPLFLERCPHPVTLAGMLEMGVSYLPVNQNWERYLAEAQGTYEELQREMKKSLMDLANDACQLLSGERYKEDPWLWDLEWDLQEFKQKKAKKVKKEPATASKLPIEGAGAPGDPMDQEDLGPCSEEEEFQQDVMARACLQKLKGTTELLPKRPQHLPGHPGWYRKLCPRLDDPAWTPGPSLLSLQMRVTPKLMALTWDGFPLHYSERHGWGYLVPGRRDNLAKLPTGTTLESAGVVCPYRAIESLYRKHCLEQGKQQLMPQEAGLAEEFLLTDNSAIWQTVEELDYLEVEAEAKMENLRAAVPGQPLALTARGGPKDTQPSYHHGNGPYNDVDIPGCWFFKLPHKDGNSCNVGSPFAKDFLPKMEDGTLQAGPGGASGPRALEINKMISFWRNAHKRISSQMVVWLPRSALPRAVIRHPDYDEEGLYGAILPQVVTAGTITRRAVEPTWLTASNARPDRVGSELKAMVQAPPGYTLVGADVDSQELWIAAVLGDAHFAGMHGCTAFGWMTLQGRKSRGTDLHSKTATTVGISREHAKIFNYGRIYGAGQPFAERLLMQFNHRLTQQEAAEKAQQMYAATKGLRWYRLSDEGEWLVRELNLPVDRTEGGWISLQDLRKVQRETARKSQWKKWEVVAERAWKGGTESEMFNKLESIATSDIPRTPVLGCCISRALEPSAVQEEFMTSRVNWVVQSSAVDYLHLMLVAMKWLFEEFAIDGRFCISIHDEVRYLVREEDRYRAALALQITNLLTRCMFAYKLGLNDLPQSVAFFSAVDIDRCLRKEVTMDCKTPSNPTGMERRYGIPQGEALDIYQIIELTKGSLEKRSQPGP
Excerpt: (§1) HIV RT, like other viral polymerase, shares limited structural homology with the cellular DNA polymerases responsible for normal nuclear and mitochondrial DNA synthesis and repair. This raises the formal possibility that inhibitors of HIV RT might inhibit cellular polymerases, resulting in cellular toxicity. In particular, inhibition of polymerase gamma has the potential to result in mitochondrial toxicity. The ability of Compound I and Compound III to inhibit cellular DNA polymerases was assessed using standard in vitro assays (Table 5).

[2] = target: T2, human DNA polymerase alpha (Homo sapiens, UniProt P09884); test: Human cellular DNA polymerase alpha assay; type: biochemical
T2 sequence (P09884 1-1462): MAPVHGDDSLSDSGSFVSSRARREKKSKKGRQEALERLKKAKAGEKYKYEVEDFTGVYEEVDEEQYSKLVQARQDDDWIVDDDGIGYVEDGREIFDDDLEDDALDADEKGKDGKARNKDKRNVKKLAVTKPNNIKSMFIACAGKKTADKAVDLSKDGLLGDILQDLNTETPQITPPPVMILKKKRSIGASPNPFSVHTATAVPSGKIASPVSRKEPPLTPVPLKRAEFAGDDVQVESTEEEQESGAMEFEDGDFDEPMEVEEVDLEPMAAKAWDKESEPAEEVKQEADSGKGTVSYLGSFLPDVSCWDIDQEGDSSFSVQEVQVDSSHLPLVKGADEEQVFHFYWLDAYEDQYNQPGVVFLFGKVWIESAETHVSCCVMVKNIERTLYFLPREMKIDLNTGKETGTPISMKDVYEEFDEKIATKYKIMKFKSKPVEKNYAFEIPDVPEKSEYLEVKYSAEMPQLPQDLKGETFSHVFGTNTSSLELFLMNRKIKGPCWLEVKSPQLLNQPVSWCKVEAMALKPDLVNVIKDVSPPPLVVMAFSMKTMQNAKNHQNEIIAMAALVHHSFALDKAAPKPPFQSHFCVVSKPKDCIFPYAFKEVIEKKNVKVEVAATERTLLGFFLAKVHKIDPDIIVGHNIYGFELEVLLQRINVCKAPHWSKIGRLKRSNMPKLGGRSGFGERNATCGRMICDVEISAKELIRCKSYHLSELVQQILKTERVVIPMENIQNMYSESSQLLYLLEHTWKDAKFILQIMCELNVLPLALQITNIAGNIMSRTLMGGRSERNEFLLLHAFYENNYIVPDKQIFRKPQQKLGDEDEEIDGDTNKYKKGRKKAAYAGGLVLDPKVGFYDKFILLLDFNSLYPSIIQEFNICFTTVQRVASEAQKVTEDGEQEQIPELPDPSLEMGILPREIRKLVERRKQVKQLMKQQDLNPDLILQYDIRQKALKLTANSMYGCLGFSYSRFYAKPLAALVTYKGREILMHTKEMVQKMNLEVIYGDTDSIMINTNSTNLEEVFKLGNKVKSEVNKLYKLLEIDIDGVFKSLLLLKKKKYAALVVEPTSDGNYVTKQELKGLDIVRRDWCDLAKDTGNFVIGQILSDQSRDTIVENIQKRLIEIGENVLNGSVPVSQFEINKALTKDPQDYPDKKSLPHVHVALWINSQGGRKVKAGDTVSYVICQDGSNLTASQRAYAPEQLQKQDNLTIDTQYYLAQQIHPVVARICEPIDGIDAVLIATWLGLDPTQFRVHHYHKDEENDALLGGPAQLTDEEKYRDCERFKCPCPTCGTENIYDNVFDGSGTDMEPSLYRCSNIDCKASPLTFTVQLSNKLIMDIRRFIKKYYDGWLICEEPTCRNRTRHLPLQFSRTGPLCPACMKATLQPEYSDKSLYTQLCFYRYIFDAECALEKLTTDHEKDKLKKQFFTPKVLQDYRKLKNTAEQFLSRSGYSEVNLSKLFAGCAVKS
Excerpt: as §1

[3] = target: human DNA polymerase beta (Homo sapiens, UniProt P06746); test: Human cellular DNA polymerase beta assay; type: biochemical
Excerpt: as §1

CYP3A4 = CYP3A4 (Homo sapiens, UniProt P08684); test: Recombinant CYP450 inhibition, fluorometric, CYP3A4; type: in vitro ADME; set-up: from tissue; host or cells: pooled human liver microsomes
Chain of CYP3A4 (P08684 whole entry, the tested form may be a part): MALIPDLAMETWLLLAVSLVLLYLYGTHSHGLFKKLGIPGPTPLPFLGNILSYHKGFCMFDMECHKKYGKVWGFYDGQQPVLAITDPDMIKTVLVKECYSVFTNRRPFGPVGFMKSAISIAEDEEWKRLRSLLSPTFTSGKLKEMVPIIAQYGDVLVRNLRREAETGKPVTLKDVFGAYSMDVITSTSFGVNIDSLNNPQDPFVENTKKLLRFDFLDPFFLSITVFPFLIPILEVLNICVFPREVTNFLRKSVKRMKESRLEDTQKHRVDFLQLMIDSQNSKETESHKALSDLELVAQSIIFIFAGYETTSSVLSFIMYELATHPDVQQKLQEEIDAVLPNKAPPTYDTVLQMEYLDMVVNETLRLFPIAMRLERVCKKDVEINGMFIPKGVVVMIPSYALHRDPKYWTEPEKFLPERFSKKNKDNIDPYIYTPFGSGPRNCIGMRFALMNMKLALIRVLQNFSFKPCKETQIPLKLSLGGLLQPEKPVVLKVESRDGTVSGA
Procedure: (§2) Compounds were assayed using recombinant human microsomal proteins with fluorometric substrates. Signal was measured with a Fusion plate reader utilizing the appropriate excitation and emission wavelength set to detect the specific metabolite: […]

[4] = test system: HIV-1 BH10 wild-type virus; test: microbe, parasite or virus in culture; type: cell-based; conditions: Human immunodeficiency virus 1, MT4, read-out: EC50, BH10, Example 16 comparative tables; unit inferred; several lines per compound
[5] = test system: HIV-1 BH10 K103N mutant virus; test: microbe, parasite or virus in culture; type: cell-based; conditions: Human immunodeficiency virus 1, MT4, read-out: EC50, K103N
Procedure: (§3) The activity of the compounds was also assessed with the same virus and cell type using a different assay readout based on cytopathic effect (CPE).
(§4) MT-4 cells (Source: NIH Catalog #120) were seeded onto 96-well cell culture plates (1×10^4 cells per well in 50 μL).
(§5) The final DMSO concentration in the assay was 0.5% in 120 μL. Cell cultures were then incubated at 37° C./5% CO2 for 4 days. Then, Cell Titer 96 AQueous One Solution Cell Proliferation Assay (Promega) was used to measure cell viability. Briefly, the One Solution Reagent was added directly to culture wells (20 μL/well), incubated for 5 hours, and the absorbance was recorded at 492 nm using the Sunrise Tecan Spectrophotometer.
(§6) The EC50 values were determined from the percent inhibition versus concentration data using a sigmoidal non-linear regression analysis based on four parameters with Tecan Magellan software.

[6] = test system: HIV-1 BH10 K103N mutant virus; test: microbe, parasite or virus in culture; type: cell-based; conditions: Human immunodeficiency virus 1, MT4, read-out: EC50, K103N, Example 16 comparative tables; unit inferred
[7] = test system: HIV-1 BH10 wild-type virus; test: CPE / cell protection assay, MT-4 cells, BH10 wild-type; type: cell-based; conditions: Human immunodeficiency virus 1, MT4; Cell Protection Assay tables; unit inferred; read-out: EC50, BH10
Procedure: as §3, §4, §5, §6

CYP2D6 = CYP2D6 (Homo sapiens, UniProt P10635); test: Recombinant CYP450 inhibition, fluorometric, CYP2D6; type: in vitro ADME; set-up: from tissue; host or cells: pooled human liver microsomes; conditions: recombinant human CYP2D6 microsomal protein, read-out: percentage of inhibition at the highest concentration tested, CYP2D6
Chain of CYP2D6 (P10635 whole entry): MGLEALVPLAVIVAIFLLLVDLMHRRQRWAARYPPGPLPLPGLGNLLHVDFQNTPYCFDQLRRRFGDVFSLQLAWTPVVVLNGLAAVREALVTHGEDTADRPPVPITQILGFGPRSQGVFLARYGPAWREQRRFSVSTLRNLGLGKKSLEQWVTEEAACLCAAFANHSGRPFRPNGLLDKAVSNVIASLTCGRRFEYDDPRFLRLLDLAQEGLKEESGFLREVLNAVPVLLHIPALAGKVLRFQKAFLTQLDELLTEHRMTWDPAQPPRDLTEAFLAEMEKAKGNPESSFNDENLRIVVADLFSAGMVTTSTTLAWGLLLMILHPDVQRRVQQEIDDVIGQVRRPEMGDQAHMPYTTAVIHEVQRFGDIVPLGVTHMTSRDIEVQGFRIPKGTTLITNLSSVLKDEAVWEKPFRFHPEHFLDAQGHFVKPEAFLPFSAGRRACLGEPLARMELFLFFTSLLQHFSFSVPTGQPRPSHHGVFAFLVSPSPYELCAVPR
Procedure: as §2

[8] = test system: CYP3A4 (activation of PXR in DPX2 cells); test: CYP3A4 induction screen in DPX2 cells; type: cell-based, human; conditions: extent compared with rifampicine, mifepristone, androstanol
Excerpt: The potential for in vitro induction of CYP3A4 was screened in DPX2 cells. The DPX2 cell line is a derivative of a human hepatocellular carcinoma cell line (HepG2) transformed with the human pregnane x receptor (PXR) and a reporter gene vector containing the enhancer region of CYP3A4. The potential for in vitro induction of CYP1A2 was screened in CYP1A2-DRE cells. The CYP1A2-DRE cell line is a stably transformed HepG2 cells with dioxin response elements (DRE) and reporter gene containing CYP1A2 promoter elements. The extent of CYP3A4 induction was determined by comparing the activation of PXR obtained with test article to that obtained with rifampicine (potent inducer), mifepristone (moderate inducer) and androstanol (weak inducer). The extent of CYP1A2 induction was determined by comparing the activation of the aryl hydrocarbon receptor (AhR) obtained with test article to that obtained with TCDD (potent inducer), omeprazole (moderate inducer), and 2-acetylaminofluorene (weak inducer).

CYP2C9 = CYP2C9 (Homo sapiens, UniProt P11712); test: Recombinant CYP450 inhibition, Luciferin-H, CYP2C9; type: in vitro ADME; set-up: from tissue; host or cells: pooled human liver microsomes; conditions: highest concentration tested 10 μM
Chain of CYP2C9 (P11712 whole entry, the tested form may be a part): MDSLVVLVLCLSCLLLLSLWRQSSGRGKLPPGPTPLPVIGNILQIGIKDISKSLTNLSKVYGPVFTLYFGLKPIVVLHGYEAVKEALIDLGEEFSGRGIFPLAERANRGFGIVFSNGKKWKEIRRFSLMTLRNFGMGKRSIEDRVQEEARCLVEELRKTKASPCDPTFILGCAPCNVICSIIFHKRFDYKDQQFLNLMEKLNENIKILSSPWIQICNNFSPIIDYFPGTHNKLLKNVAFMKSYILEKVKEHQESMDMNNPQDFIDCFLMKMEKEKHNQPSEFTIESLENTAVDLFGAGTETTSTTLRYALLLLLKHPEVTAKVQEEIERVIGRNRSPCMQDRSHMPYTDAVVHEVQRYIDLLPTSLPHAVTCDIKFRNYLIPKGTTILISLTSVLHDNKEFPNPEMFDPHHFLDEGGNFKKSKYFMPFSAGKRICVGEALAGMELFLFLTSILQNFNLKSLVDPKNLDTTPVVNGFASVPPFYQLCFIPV
Procedure: CYP2C9 inhibition was performed by incubating a luminogenic CYP450 substrate Luciferin-H with CYP2C9 and an NADPH regeneration system. Luminescence measured using a Fusion plate reader.

[9] = Table 6, N=4, read-out: Mean IC50 Values ± Standard Deviation, DNA Pol Gamma

Cc1cn([C@H]2C[C@H](N=[N+]=[N-])[C@@H](CO)O2)c(=O)[nH]c1=O [AZT, zidovudine, reference compound]
EC50 (HIV-2 ROD): 162 ± 76.7 nM

Cc1c2oc3c(C)ccc(C(=O)N[C@@H]4C(=O)N[C@H](C(C)C)C(=O)N5CCC[C@H]5C(=O)N(C)CC(=O)N(C)[C@@H](C(C)C)C(=O)O[C@@H]4C)c3nc-2c(C(=O)N[C@@H]2C(=O)N[C@H](C(C)C)C(=O)N3CCC[C@H]3C(=O)N(C)CC(=O)N(C)[C@@H](C(C)C)C(=O)O[C@@H]2C)c(N)c1=O [Act. D, actinomycin D, reference compound] (I: T[dV]P[Sar][NMeV] / II: T[dV]P[Sar][NMeV]; ester I:1-I:C, II:1-II:C; linker I:N-II:N via Actinocin(9to1))
IC50 ([1]; Table 5, preliminary data from a single experiment, read-out: Average IC50 Values, DNA Pol Gamma): 16900 nM
IC50 [1, 9]: 11800 ± 1900 nM
IC50 ([2]; Table 5, read-out: Average IC50 Values ± Standard Deviation, DNA Pol Alpha): 16100 ± 11200 nM
IC50 ([2]; Table 6, N=4, read-out: Mean IC50 Values ± Standard Deviation, DNA Pol Alpha): 16100 ± 11200 nM
IC50 ([3]; Table 5, read-out: Average IC50 Values ± Standard Deviation, DNA Pol Beta): 23000 ± 10400 nM
IC50 ([3]; Table 6, N=4, read-out: Mean IC50 Values ± Standard Deviation, DNA Pol Beta): 23000 ± 10400 nM

CO[P@@](=O)(c1cc(C)cc(/C=C/C#N)c1)c1c(C(N)=O)[nH]c2ccc(Cl)c(F)c12 [Compound II, (2-Carbamoyl-5-chloro-4-fluoro-1H-indol-3-yl)-[3-((E)-2-cyano-vinyl)-5-methyl-phenyl]-(S)-phosphinic acid methyl ester]
IC50 (CYP3A4): 3210 nM
EC50 [4]: 192 nM
EC50 [5]: 277 ± 99 nM
EC50 [6]: 920 nM
EC50 [7]: 62 ± 19 nM

CO[P@@](=O)(c1cc(C)cc(/C=C/C#N)c1)c1c(C(N)=O)[nH]c2ccc(Cl)cc12 [IV, (2-carbamoyl-5-chloro-1H-indol-3-yl)-[3-((E)-2-cyano-vinyl)-5-methyl-phenyl]-(S)-phosphinic acid methyl ester]
IC50 (CYP3A4; recombinant, highest concentration tested 10 μM, read-out: IC50, CYP3A4): 2960 nM
inhibition at 10 µM (CYP2D6): 29.1%
Induction, DPX2 (CYP3A4) [8]: Moderate (n = 1)
EC50 [5]: 0.3 nM
EC50 [7]: 0.2 ± 0.1 nM
IC50 (CYP2C9): 3380 nM

dideoxycytidine triphosphate [ddCTP, reference compound]
IC50 [1, 9]: 1500 ± 600 nM

From patent US8486991B2, “Enantiomerically pure phosphoindoles as HIV inhibitors” (Idenix Pharmaceuticals, Inc., priority 2006, dated 2013)
